Source: paper PMC5556071, “ATR inhibition facilitates targeting of leukemia dependence on convergent nucleotide biosynthetic pathways” (Nature Communications, 2017)
“And” between values parts separate entries of the source, which are not always exact repeats. Equal entries are not always repeated.

Test system: CEM cells
Assay: Non-targeted LC-MS metabolite profiling: percent [13C6]glucose labeling and relative metabolite levels
Assay type: cell-based, human
Conditions: CEM cells, 12 h following release from G1 arrest, replicates #1-#6
Description: To further investigate the functions of dCK and ATR at the G1/S transition in CEM cells, a non-targeted liquid chromatography mass spectrometry (LC-MS) assay was used to determine the utilization of labeled [^13C6]glucose and [^13C9,^15N3]deoxycytidine, the main substrates for de novo and salvage nucleotide biosynthesis, respectively. Of the 166 metabolites identified in CEM cells treated with VE-822 and/or dCKi, 105 metabolites found in all four treatment groups contained glucose-derived ^13C atoms. […] These metabolites included intermediates such as rUTP, rCTP and rCDP in the de novo dCTP biosynthesis (Fig. 1d). […] However, several deoxyribonucleotides, including dCTP, were below the limit of detection of the non-targeted LC-MS approach, raising the concern that the sensitivity of this assay is not sufficient to measure the contribution of the salvage pathway or the ratio of de novo and salvage biosynthesis to these pools. To address this problem, a newly developed targeted MS assay was developed (Fig. 1e and Supplementary Fig. 3). In this assay, samples containing either extracted dNTPs or hydrolyzed DNA from labeled cells are separated by LC for detection by a triple quadrupole mass spectrometer using multiple reaction monitoring (LC-MS/MS-MRM). The first (Q1) and third (Q3) quadrupoles function as mass filters, while the second (Q2) quadrupole serves as a collision chamber (Fig. 1e). For instance, to profile the biosynthetic composition of deoxycytidine (dC) derived from hydrolyzed DNA or dCTP, an intact, protonated dC ion is selected in Q1, followed by fragmentation of the glycosidic bond, which releases protonated cytosine in Q2, that is filtered in Q3 and detected to generate an ion chromatogram. The peak areas for the ion chromatograms of salvage [^13C9,^15N3]dC (red trace), de novo [^13C5]dC (black trace, from [^13C6]glucose) and unlabeled dC (gray trace) (Fig. 1e) are used to determine the relative contributions of the de novo and salvage routes both to dCTP pools and to DNA-incorporated dCTP.
Cells were transferred into RPMI-1640 without glucose and supplemented with 10% dialyzed FBS (Gibco) containing the following labeled substrates: precursors for de novo [U-^13C6]glucose (Sigma-Aldrich, 389374) at 11 mM; precursors for purine salvage [U-^13C10,^15N5]dA (Cambridge Isotopes, CIL 3896), [^15N5]dA (Cambridge Isotopes, NLM-3895) and [^15N5]dG (Cambridge Isotopes, NLM-3899) at 5 µM or as indicated; and precursors for pyrimidine salvage: [U-^13C9,^15N3]dC (Silantes, 124603602) and [U-^13C10,^15N2]dT (Cambridge Isotopes, CNLM-3902) at 5 µM and [^15N2]orotate (Cambridge Isotopes, NLM-1048) at indicated concentrations. The cells were incubated for 12 h or as indicated before sample collection and processing. […]
Non-targeted LC-MS metabolic assays. 1 x 10^6 cells were washed with ice-cold 150 mM ammonium acetate twice before adding 1 mL of ice-cold 80% methanol with 10 nM norvaline as an internal standard. After vigorous vortexing, samples were centrifuged at maximum speed, the aqueous layer was transferred to a glass vial and the metabolites were dried under vacuum. Metabolites were resuspended in 50 μL 70% acetonitrile (ACN) and 5 μL of this solution used for the mass spectrometer-based analysis. The analysis was performed on a Q Exactive (Thermo Scientific) in polarity-switching mode with positive voltage 4.0 kV and negative voltage 4.0 kV. The mass spectrometer was coupled to an UltiMate 3000RSLC (Thermo Scientific) UHPLC system. Mobile phase A was 5 mM ammonium acetate (NH4AcO), pH 9.9, B was acetonitrile and the separation achieved on a Luna […] NH2 100 A column (150 × 2.0 mm, Phenomenex). The flow was 200 μL/min, and the gradient ran from 15% A to 95% A in 18 min, followed by an isocratic step for 9 min and re-equilibration for 7 min. Metabolites were detected and quantified as area under the curve based on retention time and accurate mass (≤ 3 p.p.m.) using the TraceFinder 3.1 (Thermo Scientific). Relative amounts of […]

[1] = metabolite 2-HG (C02630), listed as D
[2] = metabolite 2-Oxoadipate (C00322), listed as D
[3] = metabolite 3PG (C00197), listed as D
[4] = metabolite 4-OH-PheLac (C03672), listed as D
[5] = metabolite 5-Oxoproline (C01879), listed as D
[6] = metabolite 5M-adenosine (C00170), listed as D
[7] = metabolite A (C00212), listed as D
[8] = metabolite ADP (C00008), listed as D
[9] = metabolite AMP (C00020), listed as D
[10] = metabolite ATP (C00002), listed as D
[11] = metabolite Ac-carnitine (C02571), listed as D
[12] = metabolite Ac-choline (C01996), listed as D
[13] = metabolite Aconitate (C00417), listed as D
[14] = metabolite Adenine (C00034), listed as D
[15] = metabolite Ala (C00041), listed as D
[16] = metabolite Allantoin (C02350), listed as D
[17] = metabolite Arg (C00062), listed as D

COc1ccc(-c2nc([C@@H](C)Sc3nc(N)cc(N)n3)c(C)s2)cc1OCCNS(C)(=O)=O [dCKi]
Relative level, S7P (listed as D): 0.547 and 0.8 and 1.8 and 0.0379 and 0.143 and 0.5 | Relative level, SAM (listed as D): 1.1 and 1.4 (2×) and 0.8 and 0.6 and 0.7 | Relative level, Sarc (C00213) (listed as D): 1.2 and 1.0 (2×) and 1.6 and 0.662 and 0.641 | Relative level, Ser (C00065) (listed as D): 1.1 and 1.2 and 1.3 and 0.846 and 0.7 and 0.9 | Relative level, Shikimate (C00493) (listed as D): 1.3 and 0.7 and 1.0 and 0.649 and 0.9 (2×) | Relative level, Succ (C00042) (listed as D): 1.5 and 0.6 (2×) and 1.3 and 0.374 and 0.633 | Relative level, T (C00214) (listed as D): 1.2 and 1.1 and 1.0 and 1.4 and 151.2 and 4.3 | Relative level, Thr (C00188) (listed as D): 1.1 and 1.2 and 1.3 and 0.8 and 0.7 and 0.738 | Relative level, Thymine (C00178) (listed as D): 1.0 and 1.2 and 1.3 and 0.9 and 0.95 and 1.1 | Relative level, Trigonelline (C01004) (listed as D): 1.2 (2×) and 0.847 and 1.1 and 1.5 and 1.0 | Relative level, Trp (C00078) (listed as D): 1.1 and 1.4 and 1.7 and 0.9 (2×) and 1.0 | Relative level, Tyr (C00082) (listed as D): 1.2 and 1.4 and 1.6 and 0.9 and 0.7 and 0.8 | Relative level, Tyramine (C00483) (listed as D): 1.2 (2×) and 1.1 and 0.8 (2×) and 0.7 | Relative level, UDP (C00015) (listed as D): 0.742 and 1.3 and 2.0 and 0.235 and 0.464 and 0.9 | Relative level, UDP-Glc (C00029) (listed as D): 0.8 and 1.2 and 1.1 and 0.3 and 0.6 (2×) | Relative level, UDP-GlcNAc (C00043) (listed as D): 1.0 and 1.4 and 1.2 and 0.5 and 0.744 and 0.8 | Relative level, UMP (C00105) (listed as D): 1.3 and 1.6 and 1.9 and 0.4 and 0.552 and 0.7 | Relative level, UTP (C00075) (listed as D): 0.4 and 0.9 and 1.4 and 0.092 and 0.334 and 0.547 | Relative level, Uracil (C00106) (listed as D): 1.2 (2×) and 0.9 and 1.0 and 1.3 and 1.9 | Relative level, Uric Acid (C00366) (listed as D): 1.5 and 0.155 and 0.646 and 0.6 and 0.362 and 0.421 | Relative level, Urocanate (C00785) (listed as D): 2.0 and 0.4 and 0.448 and 1.2 (2×) and 1.0 | Relative level, Val (C00183) (listed as D): 1.1 and 1.2 (2×) and 0.9 (2×) and 1.0 | Relative level, Vit-C (C00072) (listed as D): 0.9 and 0.181 and 1.3 and 0.0595 and 0.3 and 0.557 | Relative level, Xanthine (C00385) (listed as D): 1.7 and 0.5 and 0.6 and 1.1 and 1.5 and 1.2 | Glucose labeling, 2-HG [1]: 6.77% and 13.59% and 15.44% and 1.27% and 1.71% and 4.69% | Relative level, 2-HG [1]: 1.0 and 0.9 and 1.5 and 0.5 (2×) and 0.7 | Glucose labeling, 2-HIC (metabolite 2-HIC (C03264)): 0.00% | Relative level, 2-HIC (metabolite 2-HIC (C03264), listed as D): 1.2 and 1.1 and 1.4 and 0.9 and 1.3 and 0.8 | Glucose labeling, 2-KIC (metabolite 2-KIC (C00233)): 0.00% | Relative level, 2-KIC (metabolite 2-KIC (C00233), listed as D): 1.2 and 0.9 (3×) and 1.1 and 0.8 | Glucose labeling, 2-Oxoadipate [2]: 0.00% (5×) and 1.11e-14% | Relative level, 2-Oxoadipate [2]: 0.7 (2×) and 0.646 and 0.742 and 1.0 and 0.9 | Glucose labeling, 2-Oxosuccinamate (metabolite 2-Oxosuccinamate (C02362)): 0.0737% | Relative level, 2-Oxosuccinamate (metabolite 2-Oxosuccinamate (C02362), listed as D): 1.2 and 0.465 and 0.6 and 0.528 and 0.8 and 0.469 | Glucose labeling, 3PG [3]: 92.31% and 91.58% and 98.25% and 86.75% and 100.00% and 88.16% | Relative level, 3PG [3]: 0.4 and 0.7 and 0.846 and 0.082 and 0.125 and 0.0782 | Glucose labeling, 4-OH-PheLac [4]: 0.00% (5×) and -2.22e-14% | Relative level, 4-OH-PheLac [4]: 1.1 and 1.4 and 1.5 and 0.641 and 0.6 and 0.8 | Glucose labeling, 5-Oxoproline [5]: 0.92% and 1.40% and 1.07% and 1.03% and 1.24% and 1.22% | Relative level, 5-Oxoproline [5]: 1.1 and 1.2 and 1.5 and 0.853 and 0.9 and 1.0 | Glucose labeling, 5M-adenosine [6]: 0.00% (3×) and -2.22e-14% (3×) | Relative level, 5M-adenosine [6]: 1.2 and 1.7 and 1.8 and 0.756 and 0.7 and 1.0 | Glucose labeling, A [7]: 0.07% and 0.09% and 0.36% and 0.41% (2×) and 0.34% | Relative level, A [7]: 1.5 and 0.9 (2×) and 1.1 and 0.856 and 0.8 | Glucose labeling, ADP [8]: 70.99% and 74.74% and 75.09% and 55.71% and 66.84% and 71.23% | Relative level, ADP [8]: 0.7 and 1.2 and 1.9 and 0.226 and 0.4 and 0.8 | Glucose labeling, AMP [9]: 68.04% and 70.86% and 73.23% and 43.50% and 56.58% and 70.44% | Relative level, AMP [9]: 1.2 (2×) and 1.8 and 0.25 and 0.471 and 0.9 | Glucose labeling, ATP [10]: 75.87% and 76.55% and 77.60% and 67.61% and 74.40% and 75.12% | Relative level, ATP [10]: 0.38 and 0.9 and 1.3 and 0.117 and 0.3 and 0.6 | Glucose labeling, Ac-carnitine [11]: 31.00% and 33.96% and 35.62% and 27.44% and 29.81% and 28.83% | Relative level, Ac-carnitine [11]: 1.1 and 1.3 and 1.2 and 0.7 and 0.756 and 0.8 | Glucose labeling, Ac-choline [12]: 0.00451% and 0.00494% and 0.00571% and 0.0058% and 0.0047% and 0.00638% | Relative level, Ac-choline [12]: 0.9 and 1.1 and 1.0 (4×) | Glucose labeling, Aconitate [13]: 32.66% and 37.44% and 42.11% and 17.39% and 31.02% and 28.93% | Relative level, Aconitate [13]: 0.7 and 1.2 and 1.6 and 0.2 and 0.5 and 0.639 | Glucose labeling, Adenine [14]: 0.0339% and 2.19% and 0.79% and 0.14% and 0.00469% and 0.21% | Relative level, Adenine [14]: 1.9 and 0.7 and 1.3 (2×) and 3.1 and 1.0 | Glucose labeling, Ala [15]: 47.12% and 64.98% and 65.33% and 49.43% and 49.22% and 48.91% | Relative level, Ala [15]: 1.5 and 1.2 and 1.3 and 0.8 (3×) | Glucose labeling, Allantoin [16]: 0.00% (5×) and 1.11e-14% | Relative level, Allantoin [16]: 1.1 and 1.9 and 2.0 and 0.8 and 1.3 and 1.5 | Glucose labeling, Arg [17]: 0.0044% and 0.00434% and 0.00388% and 0.00418% and 0.00453% and 0.00424% | Relative level, Arg [17]: 1.0 and 1.3 and 1.5 and 0.749 and 0.7 (2×) | Glucose labeling, Arg-Succ (metabolite Arg-Succ (C03406), listed as D): 7.24% and 12.66% and 11.40% and 7.14% and 3.06% and 7.90%
